Data published in PMC8899516, “Structure-Activity Relationship Studies of 4-((4-(2-fluorophenyl)piperazin-1-yl)methyl)-6-imino-N-(naphthalen-2-yl)-1,3,5-triazin-2-amine (FPMINT) Analogues as Inhibitors of Human Equilibrative Nucleoside Transporters” (Frontiers in Pharmacology, 2022).
pIC50: −log10 of the molar value.

Experiments:
ENT1 = biological target: T1, ENT1 (Homo sapiens, UniProt Q99808); assay: [3H]uridine uptake in PK15NTD/ENT1 cells; format: cell-based; details: for pIC50: [3H]uridine 1 μM, 1 min, PK15NTD/ENT1 cells, read-out: IC50 against ENT1
T1 construct: expressed in transfected cells
T1 sequence (Q99808 1-456): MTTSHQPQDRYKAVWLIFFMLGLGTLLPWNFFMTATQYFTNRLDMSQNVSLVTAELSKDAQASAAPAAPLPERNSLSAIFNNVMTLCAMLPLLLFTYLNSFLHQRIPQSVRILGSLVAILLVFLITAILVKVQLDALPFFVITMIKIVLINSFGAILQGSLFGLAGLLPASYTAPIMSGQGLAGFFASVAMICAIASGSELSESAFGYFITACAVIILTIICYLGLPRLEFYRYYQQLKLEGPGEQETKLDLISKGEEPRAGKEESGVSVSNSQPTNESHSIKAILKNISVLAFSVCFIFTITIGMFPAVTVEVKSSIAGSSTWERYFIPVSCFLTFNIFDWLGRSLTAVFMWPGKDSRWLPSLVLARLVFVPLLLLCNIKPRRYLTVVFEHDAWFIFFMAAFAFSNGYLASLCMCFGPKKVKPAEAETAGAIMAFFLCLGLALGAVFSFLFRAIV
Procedure: (§1) Nucleoside transporter-deficient porcine kidney fibroblast cells (PK15NTD) stably transfected with cloned human ENT1 or ENT2 ([Ward et al., 2000]) were used as the in vitro models. The cells were cultured in Dulbecco’s Modified Eagle’s Medium (DMEM) supplemented with 10% (v/v) foetal bovine serum, 0.5 mg/ml geneticin, 100 units/ml penicillin, 100 μg/ml streptomycin and 0.25 μg/ml of amphotericin B at 37°C in 5% CO2/95% air.
(§2) Confluent monolayers of PK15NTD/ENT1 and PK15NTD/ENT2 cells in 24-well plates were washed thrice with HEPES-buffered Ringer’s solution containing (mM): 135 NaCl, 10 glucose, 5 KCl, 5 HEPES, 3.33 NaH2PO4, 1.0 CaCl2, 1.0 MgCl2, 0.83 Na2HPO4; pH 7.4. The cells were incubated with different concentrations of FPMINT analogues (from 10 nM to 100 μM) containing [^3H]uridine (2 μCi/ml, 1 μM) for 1 min. Passive uridine uptake was determined by incubating the cells in HEPES-buffered Ringer’s solution containing [^3H]uridine in the presence of 0.5 mM NBMPR. The cells were rapidly washed five times with ice-cold phosphate-buffered saline (PBS). After air-drying, the cells were solubilised by overnight incubation in 500 μl of 5% Triton-X100. Next, 300 μl of the cell lysates were mixed with 2 ml of scintillation liquid. The radioactivity of each sample was quantified by a scintillation counter. The protein content in each well was determined spectrophotometrically using a commercial bicinchoninic acid assay (Pierce Biochemicals, Rockford, IL). Uptake values were expressed as picomoles of [^3H]uridine per milligram of cellular protein per minute.
(§3) All data were analysed by GraphPad Prism software (San Diego, CA, United States). Data are expressed as mean ± standard error (SE) of three experiments performed in triplicate. The IC50 values were determined from the dose-response curves fitted with a logistic function. For the kinetic study of [^3H]uridine uptake, apparent K m and V max values were determined from the Michaelis-Menten equation, and K i was determined from the X-intercept of linear regression. Analysis of variance and Student’s t-test were performed for multiple and paired variables, respectively. p values of <0.05 were considered to be statistically significant.

ENT2 = biological target: T2, ENT2 (Homo sapiens, UniProt Q14542); assay: [3H]uridine uptake in PK15NTD/ENT2 cells; format: cell-based; details: for effect on ENT2: [3H]uridine uptake, 10 nM–100 μM analogue; for pIC50: [3H]uridine 1 μM, 1 min, PK15NTD/ENT2 cells, read-out: IC50 against ENT2; for selectivity to ENT2 over ENT1: more selective to ENT2 than to ENT1, from IC50 values
T2 construct: expressed in transfected cells
T2 sequence (Q14542 1-456): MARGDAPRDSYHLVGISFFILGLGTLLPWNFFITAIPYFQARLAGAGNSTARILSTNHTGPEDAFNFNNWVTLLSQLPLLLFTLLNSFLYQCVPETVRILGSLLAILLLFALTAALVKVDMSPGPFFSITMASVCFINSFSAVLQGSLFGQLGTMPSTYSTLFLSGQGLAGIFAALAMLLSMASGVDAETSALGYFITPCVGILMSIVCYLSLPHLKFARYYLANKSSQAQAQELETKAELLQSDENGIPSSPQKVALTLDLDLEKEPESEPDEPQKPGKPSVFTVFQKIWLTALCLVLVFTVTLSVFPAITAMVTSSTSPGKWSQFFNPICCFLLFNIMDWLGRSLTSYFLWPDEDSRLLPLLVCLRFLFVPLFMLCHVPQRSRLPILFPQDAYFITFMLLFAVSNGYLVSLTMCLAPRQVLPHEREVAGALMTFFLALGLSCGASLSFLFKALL
Procedure: as §1
as §2, with “The” for “Confluent monolayers of PK15NTD/ENT1 and PK15NTD/ENT2 cells in 24-well plates were washed thrice with HEPES-buffered Ringer’s solution containing (mM): 135 NaCl, 10 glucose, 5 KCl, 5 HEPES, 3.33 NaH2PO4, 1.0 CaCl2, 1.0 MgCl2, 0.83 Na2HPO4; pH 7.4. The”
as §3

ENT1 and ENT2 [1] = details: ref Ward et al., 2000, cited from earlier work; for fold more potent in inhibiting ENT1 than in inhibiting ENT2: Playa et al., 2014
ENT3 = test system: ENT3; parameters: method as in Baldwin et al., 2005; Barnes et al., 2006; details: ref Baldwin et al., 2005; Barnes et al., 2006; cited from earlier work
ENT4 = test system: ENT4; parameters: method as in Baldwin et al., 2005; Barnes et al., 2006; details: ref Baldwin et al., 2005; Barnes et al., 2006; cited from earlier work
ENT1 and ENT2 [2] = test system: ENT1 and ENT2; parameters: method as in Ward et al., 2000; details: substrate affinity; ref Ward et al., 2000; cited from earlier work

Nc1nc(CN2CCN(c3ccccc3F)CC2)nc(Nc2ccccc2)n1 [Compound 1a]
effect on ENT1 (ENT1; [3H]uridine uptake, 10 nM–100 μM analogue): negligible effects
effect on ENT2 (ENT2): negligible effects

Nc1nc(CN2CCN(c3ccccc3F)CC2)nc(Nc2cccc(Cl)c2)n1 [Compound 1b]
pIC50 (ENT1): 5.74
effect on ENT2 (ENT2): no effect

CCc1ccc(Nc2nc(N)nc(CN3CCN(c4ccccc4F)CC3)n2)cc1 [Compound 1c]
pIC50 (ENT1): 3.77
pIC50 (ENT2): 4.43
selectivity to ENT2 over ENT1 (ENT2): 4.647 fold

COc1ccc(Nc2nc(N)nc(CN3CCN(c4ccccc4F)CC3)n2)cc1 [Compound 1d]
pIC50 (ENT1): 6.23
pIC50 (ENT2): 4.11

Nc1nc(CN2CCN(c3ccccc3)CC2)nc(Nc2cccc3ccccc23)n1 [Compound 2a]
pIC50 (ENT1): 3.98
effect on ENT2 (ENT2): did not inhibit

Nc1nc(CN2CCN(c3cccc(Cl)c3)CC2)nc(Nc2cccc3ccccc23)n1 [Compound 2b]
pIC50 (ENT1): 4.90
pIC50 (ENT2): 5.53
selectivity to ENT2 over ENT1 (ENT2): 4.29 fold

Nc1nc(CN2CCN(c3ccc(F)cc3)CC2)nc(Nc2cccc(Cl)c2)n1 [Compound 3b]
pIC50 (ENT1): 5.78
effect on ENT2 (ENT2): did not inhibit

O=[N+]([O-])c1ccc(CSc2ncnc3c2ncn3[C@@H]2O[C@H](CO)[C@@H](O)[C@H]2O)cc1 [NBMPR, S-(4-nitrobenzyl)-6-thioinosine]
fold more potent in inhibiting ENT1 than in inhibiting ENT2 (ENT1 and ENT2 [1]): 7,000 fold
IC50 of ENT2 fold higher than that of ENT1 (ENT1 and ENT2 [1]): 7,000 fold
sensitivity of ENT3 to inhibitor (ENT3): inert
sensitivity of ENT4 to inhibitor (ENT4): inert

Nc1ncnc2c1ncn2[C@@H]1O[C@H](CO)[C@@H](O)[C@H]1O [adenosine]
affinity of ENT1 fold higher than that of ENT2 (ENT1 and ENT2 [2]): 2.8 fold

Nc1ccn([C@@H]2O[C@H](CO)[C@@H](O)[C@H]2O)c(=O)n1 [cytidine]
affinity of ENT1 fold higher than that of ENT2 (ENT1 and ENT2 [2]): 7.7 fold

COc1cc(C(=O)OCCCN2CCCN(CCCOC(=O)c3cc(OC)c(OC)c(OC)c3)CC2)cc(OC)c1OC [dilazep]
fold more potent in inhibiting ENT1 than in inhibiting ENT2 (ENT1 and ENT2 [1]): 502 fold

OCCN(CCO)c1nc(N2CCCCC2)c2nc(N(CCO)CCO)nc(N3CCCCC3)c2n1 [dipyridamole]
fold more potent in inhibiting ENT1 than in inhibiting ENT2 (ENT1 and ENT2 [1]): 71 fold
IC50 of ENT2 fold higher than that of ENT1 (ENT1 and ENT2 [1]): 71 fold
sensitivity of ENT3 to inhibitor (ENT3): inert
sensitivity of ENT4 to inhibitor (ENT4): inert

Nc1nc2c(ncn2[C@@H]2O[C@H](CO)[C@@H](O)[C@H]2O)c(=O)[nH]1 [guanosine]
affinity of ENT1 fold higher than that of ENT2 (ENT1 and ENT2 [2]): 19.3 fold

Cc1cn([C@H]2C[C@H](O)[C@@H](CO)O2)c(=O)[nH]c1=O [thymidine]
affinity of ENT1 fold higher than that of ENT2 (ENT1 and ENT2 [2]): 2.6 fold
